Data on 15 molecules can be found in patent US20240124465A1, “MOLECULES AND METHODS RELATED TO TREATMENT OF DISORDERS ASSOCIATED WITH JAK-2 SIGNALING DYSFUNCTION” (ST. JUDE CHILDREN'S RESEARCH HOSPITAL, priority 2020, published 2024).

Holding throughout (format): cell-based
The subject of assay [1] is MHH-CALL-4 cells. Nature of the assay: Cytotoxicity assay (resazurin, 72 hours). Conditions: for EC50: MHHCALL4, resazurin; for AUC: area under the dose-response curve. Also noted: AUC: unit not given beside the values. As for the experimental part:
Cytotoxicity assay: MHH-CALL-4 cells were maintained in RPMI1640 medium (Invitrogen) supplemented with 10% FBS (Hyclone), Penicillin/Streptomycin (100 units/mL) and Glutamine (100 μM). 2×10^5 cells were seeded in 100 μl medium/well in 96 well assay plates (Corning 3603). Assays were performed in triplicate; compounds to be screened were added to assay plates from DMSO stock solutions by pin transfer using 50SS pins (V&P Scientific). The assay plates incubated at 37° C. in 5% CO2 for 72 hours. Cells were then incubated for four hours with resazurin (Sigma) solution and read on a Synergy HT plate reader (Biotek, Winooski, VT). High-throughput assay data was analyzed using our in-house Robust Interpretation of Screening Experiments (RISE) application written in Pipeline Pilot (Biovia, v. 17.2.0) and the R program (R Core Team, 2013). All the AUC (area under the dose-response curve) per compound calculated from its dose response curve by RISE protocol. Selected data were plotted and analyzed by GraphPad Prism software v7 using non-linear regression curve fitting.
Background: The colour change of resazurin is a common sign of viable cells or microbes.

The test system of assay [2] is JAK2. The assay is described as follows: Western blot assay, JAK2 protein degradation. Conditions: MHH-CALL-4 cells, vehicle control = 100%. As for the experimental part:
(§1) Western blot assay: MHH-CALL-4 Cells were washed twice with ice-cold PBS and lysed in RIPA lysis buffer (Sigma) freshly supplemented with Halt™ Protease Inhibitor Cocktail (ThermoFisher) for 15 minutes on ice. The cell pellet was removed by centrifugation at 13,000 g at 4° C. for 15 minutes. Protein concentration was measured by BCA assay (Thermo Fisher Scientific). Proteins were denatured in NuPAGE LDS 4× sample buffer supplemented with reducing agents (Invitrogen). Typically, 10-20 μg of total protein was loaded per lane on a 4%-12% NUPAGE Bis-Tris gradient gel (Invitrogen) and analyzed by standard immunoblotting and imaged using Li—COR Odyssey CLx (LI-COR Biotechnology, Lincoln, NE). To access the protein degradation, the signal of target protein was normalized by the signal of ACBT and the signal of vehicle control was set as 100%. Primary antibodies used were: JAK1 (Cell Signaling #3332S), JAK2 (#3230S), JAK3 (#8827S), TYK2 (#9312S), GSPT1 (#14980S), CRBN (#71810S), IKZF1 (Santa Cruz Biotechnology, SC-398265) and ACBT (Santa Cruz Biotechnology, SC-47778).

Assay [3] has as its target T1, GSPT1 (Homo sapiens, UniProt P15170).
T1 construct: endogenous in cells; host or cells: MHH-CALL-4
Nature of the assay: Western blot assay, GSPT1 neosubstrate degradation. The conditions noted are these: MHH-CALL-4 cells, vehicle control = 100%; for remaining activity at 0.1 µM: MHHCALL4, 100 nM, 24 h. As for the experimental part: as §1
Background: Immunoblotting shows a protein as a band on a membrane.

T1 sequence (P15170 whole entry): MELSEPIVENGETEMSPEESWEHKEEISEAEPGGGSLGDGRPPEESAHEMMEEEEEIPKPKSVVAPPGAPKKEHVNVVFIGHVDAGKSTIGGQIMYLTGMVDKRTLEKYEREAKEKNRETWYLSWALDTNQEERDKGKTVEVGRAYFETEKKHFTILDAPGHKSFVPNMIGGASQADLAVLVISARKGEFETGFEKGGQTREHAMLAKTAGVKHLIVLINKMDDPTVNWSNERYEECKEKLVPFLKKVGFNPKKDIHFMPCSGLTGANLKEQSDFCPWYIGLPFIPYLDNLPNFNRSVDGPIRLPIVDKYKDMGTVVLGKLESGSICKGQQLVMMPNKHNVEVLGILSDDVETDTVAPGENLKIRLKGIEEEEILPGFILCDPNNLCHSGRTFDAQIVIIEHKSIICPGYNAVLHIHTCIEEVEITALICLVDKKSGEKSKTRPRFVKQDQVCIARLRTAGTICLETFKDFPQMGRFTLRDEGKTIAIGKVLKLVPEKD

Take `CCS(=O)(=O)N1CC(CC#N)(n2cc(-c3nc(Nc4ccc(C(=O)NCCCCCNC(=O)COc5ccc(C6CCC(=O)NC6=O)cc5)cc4)nc4[nH]ccc34)cn2)C1` (stereo not shown) [Compound 16]: in assay [1], the EC50 (usually the concentration needed to bring the measured effect to its halfway point) is above 5700 nM and the AUC is reported as 136.
Consider `CCS(=O)(=O)N1CC(CC#N)(n2cc(-c3nc(Nc4ccc(C(=O)NCCCN5CC6CC5CN6c5ccc(C6CCC(=O)NC6=O)cc5)cc4)nc4[nH]ccc34)cn2)C1` (stereo not shown) [Compound 48, 4-((4-(1-(3-(cyanomethyl)-1-(ethylsulfonyl)azetidin-3-yl)-1H-pyrazol-4-yl)-7H-pyrrolo[2,3-d]pyrimidin-2-yl)amino)-N-(3-(5-(4-(2,6-dioxopiperidin-3-yl)phenyl)-2,5-diazabicyclo[2.2.1]heptan-2-yl)propyl)benzamide], for which, in assay [1], the half-maximal effective concentration (EC50) was determined as 27.3 nM and the AUC came to 80. In assay [2], the “Target Protein Degradation (% remaining at 100 nM, 24 h) JAK2” value is reported as 76 % remaining.
As for `CCS(=O)(=O)N1CC(CC#N)(n2cc(-c3nc(Nc4ccc(C(=O)NCCOCCOc5cccc(C6CCC(=O)NC6=O)c5)cc4)nc4[nH]ccc34)cn2)C1` (stereo not shown) [Compound 9], in assay [1], the EC50 was 873 nM and the AUC is 132.
Take `CCS(=O)(=O)N1CC(CC#N)(n2cc(-c3nc(Nc4ccc(C(=O)N5CCN(c6ccc(C7CCC(=O)NC7=O)cc6)CC5)cc4)nc4[nH]ccc34)cn2)C1` (stereo not shown) [Compound 2]: in assay [1], the EC50 came out at 1 nM and the AUC turned out to be 167. The “Target Protein Degradation (% remaining at 100 nM, 24 h) JAK2” value in assay [2] is “None”. In addition, in assay [3], the “Neosubstrate Degradation (% remaining at 100 nM, 24 h) GSPT1” value is “None”.
With `CCS(=O)(=O)N1CC(CC#N)(n2cc(-c3nc(Nc4ccc(C(=O)NCCCCNc5ccc(C6CCC(=O)NC6=O)cc5)cc4)nc4[nH]ccc34)cn2)C1` (stereo not shown) [Compound 13], in assay [1], the EC50 is above 5000 nM and the AUC is on record as 93.
`CCS(=O)(=O)N1CC(CC#N)(n2cc(-c3nc(Nc4ccc(C(=O)NCCCN5CCC6(CC5)CCN(c5ccc(C7CCC(=O)NC7=O)cc5)CC6)cc4)nc4[nH]ccc34)cn2)C1` (stereo not shown) [Compound 51]: in assay [1], the EC50 came to 226 nM and the AUC is 105. For the same molecule, in assay [2], the “Target Protein Degradation (% remaining at 100 nM, 24 h) JAK2” value is on record as 67 % remaining.
With `CCS(=O)(=O)N1CC(CC#N)(n2cc(-c3nc(Nc4ccc(C(=O)NCCCN5CCC6(CCN(c7ccc(C8CCC(=O)NC8=O)cc7)CC6)C5)cc4)nc4[nH]ccc34)cn2)C1` (stereo not shown) [Compound 56, 4-((4-(1-(3-(cyanomethyl)-1-(ethylsulfonyl)azetidin-3-yl)-1H-pyrazol-4-yl)-7H-pyrrolo[2,3-d]pyrimidin-2-yl)amino)-N-(3-(8-(4-(2,6-dioxopiperidin-3-yl)phenyl)-2,8-diazaspiro[4.5]decan-2-yl)propyl)benzamide], in assay [1], the EC50 amounted to 2650 nM and the AUC is reported as 172. Also, the “Target Protein Degradation (% remaining at 100 nM, 24 h) JAK2” value in assay [2] is given as 58 % remaining. For the same molecule, in assay [3], the remaining activity (as a rule, the signal under treatment as a percentage of the control signal) at 0.1 µM turned out to be 102%.
On to `CCS(=O)(=O)C1CC(CC#N)(n2cc(-c3nc(Nc4ccc(C(=O)N5CCN(c6ccc7c(c6)C(=O)N(C6CCC(=O)NC6=O)C7=O)CC5)cc4)nc4[nH]ccc34)cn2)C1` (stereo not shown) [Compound 21], for which, in assay [1], the EC50 was 13.9 nM and the AUC came out at 118. In addition, the “Target Protein Degradation (% remaining at 100 nM, 24 h) JAK2” value in assay [2] came out at 53 % remaining.
As for `CCS(=O)(=O)N1CC(CC#N)(n2cc(-c3nc(Nc4ccc(C(=O)NCCOCCOCCOc5ccc(C6CCC(=O)NC6=O)cc5)cc4)nc4[nH]ccc34)cn2)C1` (stereo not shown) [Compound 12], in assay [1], the EC50 was above 5000 nM and the AUC turned out to be 116.
Consider `CCS(=O)(=O)N1CC(CC#N)(n2cc(-c3nc(Nc4ccc(C(=O)NCCCCNC(=O)COc5ccc(C6CCC(=O)NC6=O)cc5)cc4)nc4[nH]ccc34)cn2)C1` (stereo not shown) [Compound 15], for which, in assay [1], the concentration giving a half-maximal response (EC50) was above 5500 nM and the AUC stood at 156. In addition, the “Target Protein Degradation (% remaining at 100 nM, 24 h) JAK2” value in assay [2] is recorded as 29 % remaining. The remaining activity at 0.1 µM in assay [3] was 78%.
The matching figures for `CCCn1cc(-c2nc(Nc3ccc(C(=O)NCCN4CCN(c5cccc6c5C(=O)N(C5CCC(=O)NC5=O)C6=O)CC4)cc3)nc3[nH]ccc23)cn1` (stereo not shown) [Compound 24]: 83.6 nM, 208, 93 % remaining and 0%.
On to `CCCn1cc(-c2nc(Nc3ccc(C(=O)N4CCN(c5cccc6c5C(=O)N(C5CCC(=O)NC5=O)C6=O)CC4)cc3)nc3[nH]ccc23)cn1` (stereo not shown) [Compound 26], for which, in assay [1], the concentration giving a half-maximal response (EC50) was determined as 297 nM and the AUC turned out to be 217. The “Target Protein Degradation (% remaining at 100 nM, 24 h) JAK2” value in assay [2] is “None”. Besides, in assay [3], the “Neosubstrate Degradation (% remaining at 100 nM, 24 h) GSPT1” value is given as “Medium”.
Consider `CCCn1cc(-c2nc(Nc3ccc(C(=O)NCCCN4CCN(c5cccc6c5C(=O)C(C5CCC(=O)NC5=O)C6=O)CC4)cc3)nc3[nH]ccc23)cn1` (stereo not shown) [Compound 25], for which, in assay [1], the EC50 turned out to be 169 nM and the AUC was found to be 250. Besides, in assay [2], the “Target Protein Degradation (% remaining at 100 nM, 24 h) JAK2” value is on record as “None”. In addition, the “Neosubstrate Degradation (% remaining at 100 nM, 24 h) GSPT1” value in assay [3] was “Medium”.
On to `CCS(=O)(=O)N1CC(CC#N)(n2cc(-c3nc(Nc4ccc(C(=O)NCCCN5CC6CCC5CN6c5ccc(C6CCC(=O)NC6=O)cc5)cc4)nc4[nH]ccc34)cn2)C1` (stereo not shown) [Compound 54, 4-((4-(1-(3-(cyanomethyl)-1-(ethylsulfonyl)azetidin-3-yl)-1H-pyrazol-4-yl)-7H-pyrrolo[2,3-d]pyrimidin-2-yl)amino)-N-(3-(5-(4-(2,6-dioxopiperidin-3-yl)phenyl)-2,5-diazabicyclo[2.2.2]octan-2-yl)propyl)benzamide], for which, in assay [1], the 50% effective concentration (EC50) is 6.3 nM and the AUC is listed as 67. The “Target Protein Degradation (% remaining at 100 nM, 24 h) JAK2” value in assay [2] was determined as 62 % remaining. In addition, the remaining activity at 0.1 µM in assay [3] is 125%.
On the same counts, the results for `CCS(=O)(=O)N1CC(CC#N)(n2cc(-c3nc(Nc4ccc(C(=O)N5CC6(C5)CN(c5ccc(C7CCC(=O)NC7=O)cc5)C6)cc4)nc4[nH]ccc34)cn2)C1` (stereo not shown) [Compound 53, 2-(3-(4-(2-((4-(6-(4-(2,6-dioxopiperidin-3-yl)phenyl)-2,6-diazaspiro[3.3]heptane-2-carbonyl)phenyl)amino)-7H-pyrrolo[2,3-d]pyrimidin-4-yl)-1H-pyrazol-1-yl)-1-(ethylsulfonyl)azetidin-3-yl)acetonitrile] are 1.7 nM, 142, 36 % remaining and 102%.
